One test relates to Uncinula necator. As to the kind of experiment: Vine Powdery Mildew Foliar Assay (VPM Prot). It counts as in vivo. The conditions noted are these: vine seedlings. As for the experimental part:
A) Pathogen/Inoculum--Vine powdery mildew, caused by Uncinula necator, is an obligate parasite and must be maintained on a living host. Seedling leaves (2-5 leaf stage) of Vitis vinifera var. Carignane, are inoculated by brushing them with the leaves of infected plants. Incubation environment is the same as that described for incubation (Sec. D).
B) Host Propagation- Approximately 60 gm of seed are removed from cold storage and soaked in water for 2-3 days with frequent (3 or more) water changes each day. They are then combined with 24 gm of vermiculite and 30 ml of distilled water and put into refrigeration for 4-5 weeks. After this `vernalization` period, they are planted, 3 seeds/pot, into individual 2.25" pots filled with a commercial potting mix. The pots are watered well, and placed into a growth chamber set at 24° C., 85% RH and a 12 hour photoperiod at 200-300 me/m^2 /sec. The seedlings are thinned to one seedling/pot approximately 14 days after planting. After four to five additional days, seedlings are moved to the greenhouse. Plants are ready for assay 4-6 weeks after planting.
C) Test Compound Preparation
1) Experimental compounds--A final formulation of each of the compounds of the present invention in 20% acetone, 0.1% Tween®20 and 79.9% water is foliarly applied to the seedling vines at about 1.5 mls/pot (4 pots/treatment) using a DeVilbiss 152 sprayer at the rate of 100, 20 and 10 ppm. The seedlings have 2-4 true leaves at application. Treated pots are allowed to dry in a vented room and are then moved to the inoculation growth chamber (see Sec. D for settings).
2) Controls and standards--The commercial product RALLY=NOVA (myclobutanil)is used as an internal standard. Formulated myclobutanil 40 WP is applied at 100 and 20 ppm in water. Also included in the test is an inoculated control treatment (a water/acetone formulation blank).
D) Inoculation/Incubation--Treated vines are inoculated 24 hours after chemical application. Several diseased leaves are removed from inoculum production plants and are very gently brushed on the leaves of the test plants. This gentle contact and agitation allows spores to be dislodged from diseased leaves and fall onto test plant leaves.
The inoculation/incubation growth chamber is set at 24° C., 85% RH, and 12 hour photoperiod at 350 me/m^2 /sec.
E) Evaluation--The test is rated 7-9 days after inoculation or upon maximum disease expression. Percent area infected with disease is determined for each replicate. Treatment means are calculated and percent disease control is determined by the formula "(control mean--treatment mean) * 100 / control mean". The untreated/inoculated control treatment is used for this calculation. […]

Test [1] relates to Venturia inaequalis. As to the kind of experiment: In Vitro Apple Scab Assay (ASC In Vitro). It counts as cell-based. The conditions noted are these: germ tube length. As for the experimental part:
A) Pathogen/Inoculum Production--A suspension of Venturia inaequalis conidia, adjusted to 150,000 spores/ml, is prepared using freshly harvested or frozen conidia. Apple seedlings, cv. McIntosh, are sprayed with this suspension and incubated in a high humidity chamber set at 20° C. with a 12 hour photoperiod for approximately four weeks. At maximum disease expression, a fine mist of deionized water is used to wash conidia from sporulating lesions and the resulting liquid/spore suspension is collected into glass vials and frozen at -80° C. for future use.
B) Compound Preparation--Water agar with 1.5% agar m/v is autoclaved to sterilization. Stock solutions of each compound of the present invention are made by solubilizing them in an appropriate solvent at a convenient concentration. Serial dilutions in solvent are made from this stock to execute the various test rates. When the molten agar is cool enough to pour, the compounds in solvent are dispensed into the agar such that the final concentration ratio of agar to solvent is 100:1. The agar is gently agitated and poured into petri plates, one plate per treatment. The standard used is 3-(difluoromethyl)-N-2,3-dihydro-1,1,3-trimethyl-1H-inden-4-yl)-1-Methyl-1H-Pyrazole-4-carboxamide as found in U.S. Pat. No. 5,093,347.
C) Test Execution--Twenty-four hours after pouring, the plates are ready for inoculation. The previously collected frozen spore suspension is thawed at room temperature and diluted to a concentration of 1×10^4 spores/ml with sterile water. Three drops of approximately 0.1 ml each of the suspension are placed into each plate in an equidistant configuration. The plates are then placed in a dark incubator set at 20° C.
D) Test Evaluation--Forty to forty-eight hours later, the lengths of the spore germ tubes are measured using an ocular lens scale on a binocular microscope. Ten germ tubes in a drop are measured and an average determined for that drop. This procedure is repeated for the other two drops. The values for the three drops are then averaged to give the mean for the treatment. Percent inhibition of germination is calculated using the following equation: % Inhibition=(avg. control length--avg. treatment length/avg. control length) X 100.

Another test deals with Wheat Leaf Rust. Description: Wheat Leaf Rust Foliar Assay (WLR Prot). It counts as in vivo. As to conditions: 20 ppm foliar protectant. As for the experimental part: A) Pathogen/Inoculum Production--Urediospores of previously infected plants are collected using a small vacuum device and stored in glass vials at -2° C. Just before inoculation the requisite number of vials are warmed and the spores suspended in Soltrol, a light machine oil.
(B) Host Propagation, (C) Compound Preparation and (D) Compound Application follow as per Example 1.
E) Inoculation/Incubation--To inoculate the plants, the urediospore/Soltrol suspension, adjusted to 5×10^4 spores/ml, is applied in a light coating to the foliage, and the plants are placed in a mist tent for 12 to 18 hours at 20° C. in the dark. The test can then be returned to the previous growing conditions until foliar symptoms are evident and the plants can be assessed.
F) Test Evaluation--About 7 days after the plants are removed from the mist tent, the rust lesions should be evident. Three leaves in each pot (replicate) are assessed for percent infection. Phytotoxicity and growth effects are also noted at this time.
G) Data--Follows as per Example 1.

Test [2] relates to Venturia inaequalis. As to the kind of experiment: Apple Scab Foliar Assay (ASC Cur). The test is classed as in vivo. As to conditions: 20 ppm, sprayed 72 hours after inoculation, apple seedlings. As to the method: Apple Scab Foliar Assay Methods (ASC Cur)--This assay is that of Example 1 except for the sequence of the chemical application and pathogen inoculation events. One month old apple seedlings are inoculated as described. 72 hours later, the plants are removed from the mist chamber and sprayed with the test chemicals and then returned to the mist-chamber after 1 to 2 hours. Disease evaluation is made on day 8-12.

Turning to `C[C@H]1CCC[C@H](c2ccccc2NC(=O)c2cn(C)nc2C(F)F)C1` (relative stereo) [Number 3, 1H-pyrazole-4-carboxamide, 3-(difluoromethyl)-1-methyl-N-[2-(3-methylcyclohexyl)phenyl]-, trans-], the “VPM Prot percent disease control” value in the test with Uncinula necator (10 ppm foliar protectant) worked out at 34%; in the test with Uncinula necator (20 ppm foliar protectant), 51%. In addition, the “ASC In vitro (A.I.) Activity Index” value in the test on Venturia inaequalis [1] (0.1 ppm in water agar) and in the test on Venturia inaequalis [1] (1.0 ppm in water agar) was 3 throughout. Moreover, the “WLR Prot percent disease control” value in the test with Wheat Leaf Rust came out at 100%. The “ASC Cur percentage control” value with Venturia inaequalis [2] came to 69%.

For `C[C@@H]1CCC[C@H](c2ccccc2NC(=O)c2cn(C)nc2C(F)F)C1` (relative stereo) [Number 2, 1H-pyrazole-4-carboxamide, 3-(difluoromethyl)-1-methyl-N-[2-(-3-methylcyclohexyl)phenyl]-, cis-], the “VPM Prot percent disease control” value is reported as 76% in the test with Uncinula necator (20 ppm foliar protectant) and 91% with Uncinula necator (100 ppm foliar protectant). Moreover, the “ASC In vitro (A.I.) Activity Index” value in the test on Venturia inaequalis [1] (0.1 ppm in water agar) and with Venturia inaequalis [1] (1.0 ppm in water agar) was 3 throughout. Also, the “WLR Prot percent disease control” value in the test on Wheat Leaf Rust stood at 96%.

(Values after patent US5498624A, “Selected pyrazolyl derivatives” (Monsanto Company, priority 1995, dated 1996).)
